Source: ChEMBL document CHEMBL1697781, “Assessment of the health effects of chemicals in humans: II. Construction of an adverse effects database for QSAR modeling” (Curr Drug Discov Technol, 2004)

Key:
Settings in all cases: human; call rule not given here
Hepatotoxicity [1] = assay: FDA HLAED, serum glutamic pyruvic transaminase (SGPT) increase
Hepatotoxicity [2] = assay: FDA HLAED, lactate dehydrogenase (LDH) increase
Hepatotoxicity [3] = assay: FDA HLAED, serum glutamic oxaloacetic transaminase (SGOT) increase
Hepatotoxicity [4] = assay: FDA HLAED, liver enzyme composite activity
Hepatotoxicity [5] = assay: FDA HLAED, gamma-glutamyl transferase (GGT) increase
Hepatotoxicity [6] = assay: FDA HLAED, alkaline phosphatase increase
Throughout, for GGT Increase - Index Value: reference of the scale not given here.
Throughout, for LDH Increase - Index Value: reference of the scale not given here.

Row | SMILES | SGPT Increase - Activity Score (Hepatotoxicity [1]) | SGPT Increase - Index Value (Hepatotoxicity [1]) | SGPT Increase - Number of Reports (Hepatotoxicity [1]) | LDH Increase - Activity Score (Hepatotoxicity [2]) | LDH Increase - Index Value (Hepatotoxicity [2]) | LDH Increase - Number of Reports (Hepatotoxicity [2]) | SGOT Increase - Activity Score (Hepatotoxicity [3]) | SGOT Increase - Index Value (Hepatotoxicity [3]) | SGOT Increase - Number of Reports (Hepatotoxicity [3]) | Composite Activity - Active (Hepatotoxicity [4]) | Composite Activity - Marginal (Hepatotoxicity [4]) | Composite Activity - Score (Hepatotoxicity [4]) | GGT Increase - Activity Score (Hepatotoxicity [5]) | GGT Increase - Index Value (Hepatotoxicity [5]) | GGT Increase - Number of Reports (Hepatotoxicity [5]) | Alkaline Phosphatase Increase - Activity Score (Hepatotoxicity [6]) | Alkaline Phosphatase Increase - Index Value (Hepatotoxicity [6]) | Alkaline Phosphatase Increase - Number of Reports (Hepatotoxicity [6]) | other results
1 | CC(C)COCC(CN(Cc1ccccc1)c1ccccc1)N1CCCC1 (stereo unspecified) [BEPRIDIL] | Inactive | 0 | < 4 | Inactive | 27.1 | < 4 | Inactive | 0 | < 4 | 0 | 0 | Inactive | Inactive | 0 | < 4 | Inactive | 0 | < 4 | 
2 | CN(N=O)C(=O)N[C@@H](C=O)[C@@H](O)[C@H](O)[C@H](O)CO [STREPTOZOCIN] | Inactive | 0 | < 4 | Inactive | 0 | < 4 | Inactive | 0 | < 4 | 0 | 0 | Inactive | Inactive | 0 | < 4 | Inactive | 11.8 | < 4 | 
3 | COc1cccc(C2(O)CCCCC2CN(C)C)c1 (stereo unspecified) [TRAMADOL] | Inactive | 0.8 | >= 4 | Inactive | 0.6 | >= 4 | Inactive | 0.5 | >= 4 | 0 | 0 | Inactive | Inactive | 0.2 | < 4 | Inactive | 0.1 | < 4 | 
4 | COc1cc(CC2c3c(cc(OC)c(OC)c3OC)CC[N+]2(C)CCCOC(=O)CCC(=O)OCCC[N+]2(C)CCc3cc(OC)c(OC)c(OC)c3C2Cc2cc(OC)c(OC)c(OC)c2)cc(OC)c1OC.[Cl-].[Cl-] (stereo unspecified) [DOXACURIUM CHLORIDE] | Inactive | 0 | < 4 | Inactive | 0 | < 4 | Inactive | 0 | < 4 | 0 | 0 | Inactive | Inactive | 0 | < 4 | Inactive | 0 | < 4 | 
5 | CCCN1CCCC[C@H]1C(=O)Nc1c(C)cccc1C [ROPIVACAINE] | Inactive | 0 | < 4 | Inactive | 0 | < 4 | Inactive | 0 | < 4 | 0 | 0 | Inactive | Inactive | 0 | < 4 | Inactive | 0 | < 4 | 
6 | CO/N=C(\C(=O)N[C@@H]1C(=O)N2C(C(=O)[O-])=C(C[N+]3(C)CCCC3)CS[C@H]12)c1csc(N)n1 | Active | 68.4 | >= 4 | Inactive | 27.4 | < 4 | Inactive | 13.7 | < 4 | 1 | 0 | Inactive | Inactive | 27.4 | < 4 | Inactive | 1 | < 4 | 
7 | Clc1ccc(COC(Cn2ccnc2)c2ccc(Cl)cc2Cl)cc1 (stereo unspecified) [ECONAZOLE] | Inactive | 0 | < 4 | Inactive | 0 | < 4 | Inactive | 0 | < 4 | 0 | 0 | Inactive | Inactive | 0 | < 4 | Inactive | 0 | < 4 | 
8 | CNC(=C[N+](=O)[O-])NCCSCc1csc(CN(C)C)n1 [NIZATIDINE] | Inactive | 2.4 | >= 4 | Inactive | 0.5 | >= 4 | Marginally Active | 3 | >= 4 | 0 | 1 | Inactive | Inactive | 0.8 | >= 4 | Inactive | 1.4 | >= 4 | 
9 | CCOC(=O)N1CCC(=C2c3ccc(Cl)cc3CCc3cccnc32)CC1 [LORATADINE] | Inactive | 0.6 | >= 4 | Inactive | 0.2 | < 4 | Inactive | 0.9 | >= 4 |  |  |  | Inactive | 0.5 | >= 4 | Inactive | 0.7 | >= 4 | Composite Activity - Active (Hepatotoxicity [4]; Liver): 0; Composite Activity - Marginal (Hepatotoxicity [4]; Liver): 0; Composite Activity - Score (Hepatotoxicity [4]; Liver): Inactive
10 | CC1COc2c(N3CCN(C)CC3)c(F)cc3c(=O)c(C(=O)O)cn1c23 (stereo unspecified) [OFLOXACIN] | Inactive | 2.1 | >= 4 | Inactive | 1.2 | >= 4 | Inactive | 1.9 | >= 4 | 0 | 0 | Inactive | Inactive | 0.5 | < 4 | Inactive | 1.2 | >= 4 | 
11 | Oc1ccc2c(c1)[C@@]13CCCC[C@@]1(O)[C@@H](C2)N(CC1CCC1)CC3 [BUTORPHANOL] | Inactive | 0 | < 4 | Inactive | 0 | < 4 | Inactive | 0 | < 4 | 0 | 0 | Inactive | Inactive | 0 | < 4 | Inactive | 0 | < 4 | 
12 | Nc1nc2c(ncn2CCC(CO)CO)c(=O)[nH]1 [PENCICLOVIR] | Inactive | 0 | < 4 | Inactive | 0 | < 4 | Inactive | 0 | < 4 | 0 | 0 | Inactive | Inactive | 0 | < 4 | Inactive | 0 | < 4 | 
